Test system: IL-17
Assay: Inhibition of IL-17 secretion by compounds
Assay type: cell-based

CCOc1nc2c(N)ncnc2n1CC1CC1 [Compound P8]
IL-17 Secretion Inhibition: 45.4%

CCCn1c(=O)c2nc(-c3ccc(OCc4nc5ccccc5[nH]4)cc3)[nH]c2n(CCC)c1=O [Compound P2]
IL-17 Secretion Inhibition: 54.1%

CCCn1c(=O)c2nc(-c3ccc(OCc4nc5cc(C)ccc5[nH]4)cc3)[nH]c2n(CCC)c1=O [Compound P5]
IL-17 Secretion Inhibition: 64.3%
